What was measured:
Type in all cases: in vivo
Set-up in all cases: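 grade 0 to 5 of growth suppression where 5 is 90% or more and 0 below 10%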
[1] = system: Abutilon theophrasti medicus; assay: Herbicidal effects in upland field soil treatment (Test Example 2); settings: 1000 g active ingredient per hectare, 21st day after treatment, criteria of Table 138
Method in brief: (§1)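 Herbicidal effect graded 21 days after treatment, plants kept in greenhouse. Treatment was a soil-surface spray of wettable powder in water, 1000 g a.i./ha in 1000 L/ha, applied after sowing and covering seeds.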

[2] = system: Amaranthus viridis L.; assay: as above; settings: 1000 g active ingredient per hectare, 21st day after treatment, criteria of Table 138
Method in brief: as §1

[3] = system: Abutilon theophrasti medicus; assay: Herbicidal effects in upland field foliar treatment (Test Example 3); settings: criteria of Table 138; for herbicidal effects on Abutilon theophrasti medicus: 1000 g of the active ingredient per hectare, 14th day after the treatment, wettable powder; for herbicidal effect (index) on Abutilon theophrasti medicus: 1000 g active ingredient per hectare, 14th day after treatment
Experimental: (§2) Test Example 3 Test on Herbicidal Effects in Upland Field Foliar Treatment A 80-cm^2 plastic pot was filled with upland field soil. Seeds of Echinochloa crus-galli (L.) P. Beauv. var. crus-galli, Abutilon theophrasti medicus and Amaranthus viridis L. were sowed, and the plants were grown for two weeks in a greenhouse. A wettable powder formulation prepared according to Preparation Example 1 was diluted with water, and was sprayed with a small sprayer to perform foliar application over the entirety of plants from the upper side, in an amount equivalent to 1000 liters per hectare, such that 1000 g of the active ingredient per hectare was applied. Thereafter, the plants were grown in a greenhouse, and on the 14th day after the treatment, the herbicidal effects were investigated according to the criteria described in the Table 138 shown above.

[4] = system: Amaranthus viridis L.; assay: as above; settings: criteria of Table 138; for herbicidal effects on Amaranthus viridis L.: 1000 g of the active ingredient per hectare, 14th day after the treatment, wettable powder; for herbicidal effect (index) on Amaranthus viridis L.: 1000 g active ingredient per hectare, 14th day after treatment
Experimental: as §2

[5] = system: Echinochloa crus-galli (L.) P. Beauv. var. crus-galli; assay: as above; settings: criteria of Table 138; for herbicidal effects on Echinochloa crus-galli (L.) P. Beauv. var. crus-galli: 1000 g of the active ingredient per hectare, 14th day after the treatment, wettable powder; for herbicidal effect (index) on Echinochloa crus-galli (L.) P. Beauv. var. crus-galli: 1000 g active ingredient per hectare, 14th day after treatment
Experimental: as §2

[6] = system: Echinochloa oryzicola Vasing; assay: Herbicidal effects in paddy field soil treatment (Test Example 1); settings: paddy field soil treatment; 1000 g of the active ingredient per hectare; wettable powder added dropwise on water surface; 21st day after treatment
Method in brief: (§3)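 Application rate 1000 g a.i./ha, delivered as water-diluted wettable powder onto flooded (3 cm) paddy soil one day after sowing. Plants kept in a greenhouse and evaluated for herbicidal effect on day 21 post-treatment.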

[7] = system: Scirpus juncoides Roxb. var. ohwianus. T. Koyama; assay: as above; settings: paddy field soil treatment; 1000 g of the active ingredient per hectare; wettable powder added dropwise on water surface; 21st day after treatment
Method in brief: as §3

[8] = system: Monochoria vaginalis (Burm. f.) Presl var. plantaginea (Roxb.) Solms-Laub.; assay: as above; settings: paddy field soil treatment; 1000 g of the active ingredient per hectare; wettable powder added dropwise on water surface; 21st day after treatment
Method in brief: as §3

CC(C)(C)OC(=O)Cn1c(=O)c(C(=O)C2=C(O)CCCC2=O)nc2cccnc21 [III-99]
herbicidal effect (index) on Abutilon theophrasti medicus [1]: 5
herbicidal effect (index) on Amaranthus viridis L. [2]: 5
herbicidal effects on Abutilon theophrasti medicus [3]: 5
herbicidal effects on Amaranthus viridis L. [4]: 5
herbicidal effects on Echinochloa crus-galli (L.) P. Beauv. var. crus-galli [5]: 4
Herbicidal effects index, Echinochloa oryzicola Vasing [6]: 5
Herbicidal effects index, Scirpus juncoides Roxb. var. ohwianus. T. Koyama [7]: 5
Herbicidal effects index, Monochoria vaginalis (Burm. f.) Presl var. plantaginea (Roxb.) Solms-Laub. [8]: 5

CC(C)(C)OC(=O)Cn1c(=O)c(C(=O)C2=C(O)CCCC2=O)nc2ccccc21 [Compound I-99]
herbicidal effect (index) on Abutilon theophrasti medicus [1]: 5
herbicidal effect (index) on Amaranthus viridis L. [2]: 5
herbicidal effect (index) on Abutilon theophrasti medicus [3]: 5
herbicidal effect (index) on Amaranthus viridis L. [4]: 5
herbicidal effect (index) on Echinochloa crus-galli (L.) P. Beauv. var. crus-galli [5]: 5
Herbicidal effects index, Echinochloa oryzicola Vasing [6]: 5
Herbicidal effects index, Scirpus juncoides Roxb. var. ohwianus. T. Koyama [7]: 5
Herbicidal effects index, Monochoria vaginalis (Burm. f.) Presl var. plantaginea (Roxb.) Solms-Laub. [8]: 5

CC1(C)CCC(=O)C(C(=O)c2nc3ccccc3n(-c3ccc4c(c3)OCCO4)c2=O)=C1O [II-227]
herbicidal effect (index) on Abutilon theophrasti medicus [1]: 5
herbicidal effect (index) on Amaranthus viridis L. [2]: 5
herbicidal effects on Abutilon theophrasti medicus [3]: 4
herbicidal effects on Amaranthus viridis L. [4]: 5
herbicidal effects on Echinochloa crus-galli (L.) P. Beauv. var. crus-galli [5]: 5
Herbicidal effects index, Echinochloa oryzicola Vasing [6]: 5
Herbicidal effects index, Scirpus juncoides Roxb. var. ohwianus. T. Koyama [7]: 5
Herbicidal effects index, Monochoria vaginalis (Burm. f.) Presl var. plantaginea (Roxb.) Solms-Laub. [8]: 5

COc1ccccc1Cn1c(=O)c(C(=O)C2=C(O)CCCC2=O)nc2cccnc21 [III-120]
herbicidal effect (index) on Abutilon theophrasti medicus [1]: 4
herbicidal effect (index) on Amaranthus viridis L. [2]: 5
herbicidal effects on Abutilon theophrasti medicus [3]: 5
herbicidal effects on Amaranthus viridis L. [4]: 5
herbicidal effects on Echinochloa crus-galli (L.) P. Beauv. var. crus-galli [5]: 5
Herbicidal effects index, Echinochloa oryzicola Vasing [6]: 5
Herbicidal effects index, Scirpus juncoides Roxb. var. ohwianus. T. Koyama [7]: 5
Herbicidal effects index, Monochoria vaginalis (Burm. f.) Presl var. plantaginea (Roxb.) Solms-Laub. [8]: 5

O=C1CCCC(O)=C1C(=O)c1nc2ccccc2n(COCC2CCCO2)c1=O (stereo not drawn) [I-65]
herbicidal effect (index) on Abutilon theophrasti medicus [1]: 5
herbicidal effect (index) on Amaranthus viridis L. [2]: 5
herbicidal effect (index) on Abutilon theophrasti medicus [3]: 5
herbicidal effect (index) on Amaranthus viridis L. [4]: 5
herbicidal effect (index) on Echinochloa crus-galli (L.) P. Beauv. var. crus-galli [5]: 4
Herbicidal effects index, Echinochloa oryzicola Vasing [6]: 4
Herbicidal effects index, Scirpus juncoides Roxb. var. ohwianus. T. Koyama [7]: 5
Herbicidal effects index, Monochoria vaginalis (Burm. f.) Presl var. plantaginea (Roxb.) Solms-Laub. [8]: 5

CCCCn1c(=O)c(C(=O)C2=C(O)CCCC2=O)nc2cccnc21 [III-15]
herbicidal effect (index) on Abutilon theophrasti medicus [1]: 5
herbicidal effect (index) on Amaranthus viridis L. [2]: 5
herbicidal effects on Abutilon theophrasti medicus [3]: 5
herbicidal effects on Amaranthus viridis L. [4]: 5
herbicidal effects on Echinochloa crus-galli (L.) P. Beauv. var. crus-galli [5]: 5
Herbicidal effects index, Echinochloa oryzicola Vasing [6]: 5
Herbicidal effects index, Scirpus juncoides Roxb. var. ohwianus. T. Koyama [7]: 5
Herbicidal effects index, Monochoria vaginalis (Burm. f.) Presl var. plantaginea (Roxb.) Solms-Laub. [8]: 5

Cc1cc(-n2c(=O)c(C(=O)C3=C(O)C4CCC(C4)C3=O)nc3ccccc32)no1 (stereo not drawn) [I-148]
herbicidal effect (index) on Abutilon theophrasti medicus [1]: 5
herbicidal effect (index) on Amaranthus viridis L. [2]: 5
herbicidal effect (index) on Abutilon theophrasti medicus [3]: 5
herbicidal effect (index) on Amaranthus viridis L. [4]: 5
herbicidal effect (index) on Echinochloa crus-galli (L.) P. Beauv. var. crus-galli [5]: 5
Herbicidal effects index, Echinochloa oryzicola Vasing [6]: 5
Herbicidal effects index, Scirpus juncoides Roxb. var. ohwianus. T. Koyama [7]: 5
Herbicidal effects index, Monochoria vaginalis (Burm. f.) Presl var. plantaginea (Roxb.) Solms-Laub. [8]: 5

COc1ccc(-n2c(=O)c(C(=O)C3=C(O)CCCC3=O)nc3ccccc32)cc1 [II-62]
herbicidal effect (index) on Abutilon theophrasti medicus [1]: 5
herbicidal effect (index) on Amaranthus viridis L. [2]: 5
herbicidal effects on Abutilon theophrasti medicus [3]: 5
herbicidal effects on Amaranthus viridis L. [4]: 5
herbicidal effects on Echinochloa crus-galli (L.) P. Beauv. var. crus-galli [5]: 4
Herbicidal effects index, Echinochloa oryzicola Vasing [6]: 5
Herbicidal effects index, Scirpus juncoides Roxb. var. ohwianus. T. Koyama [7]: 5
Herbicidal effects index, Monochoria vaginalis (Burm. f.) Presl var. plantaginea (Roxb.) Solms-Laub. [8]: 5

CCOCn1c(=O)c(C(=O)C2=C(O)CCCC2=O)nc2ccccc21 [I-50]
herbicidal effect (index) on Abutilon theophrasti medicus [1]: 5
herbicidal effect (index) on Amaranthus viridis L. [2]: 5
herbicidal effect (index) on Abutilon theophrasti medicus [3]: 5
herbicidal effect (index) on Amaranthus viridis L. [4]: 5
herbicidal effect (index) on Echinochloa crus-galli (L.) P. Beauv. var. crus-galli [5]: 4
Herbicidal effects index, Echinochloa oryzicola Vasing [6]: 5
Herbicidal effects index, Scirpus juncoides Roxb. var. ohwianus. T. Koyama [7]: 5
Herbicidal effects index, Monochoria vaginalis (Burm. f.) Presl var. plantaginea (Roxb.) Solms-Laub. [8]: 5

CC1(C)CC(=O)C(C(=O)c2nc3cccnc3n(-c3cccc(C(F)(F)F)c3)c2=O)=C(O)C1 [IV-41]
herbicidal effect (index) on Abutilon theophrasti medicus [1]: 5
herbicidal effect (index) on Amaranthus viridis L. [2]: 5
herbicidal effects on Abutilon theophrasti medicus [3]: 5
herbicidal effects on Amaranthus viridis L. [4]: 5
herbicidal effects on Echinochloa crus-galli (L.) P. Beauv. var. crus-galli [5]: 5
Herbicidal effects index, Echinochloa oryzicola Vasing [6]: 5
Herbicidal effects index, Scirpus juncoides Roxb. var. ohwianus. T. Koyama [7]: 5
Herbicidal effects index, Monochoria vaginalis (Burm. f.) Presl var. plantaginea (Roxb.) Solms-Laub. [8]: 5

O=C1CCCC(O)=C1C(=O)c1nc2ccccc2n(C2CCCC2)c1=O [I-21]
herbicidal effect (index) on Abutilon theophrasti medicus [1]: 5
herbicidal effect (index) on Amaranthus viridis L. [2]: 5
herbicidal effect (index) on Abutilon theophrasti medicus [3]: 5
herbicidal effect (index) on Amaranthus viridis L. [4]: 5
herbicidal effect (index) on Echinochloa crus-galli (L.) P. Beauv. var. crus-galli [5]: 5

COc1cc(-n2c(=O)c(C(=O)C3=C(O)CCCC3=O)nc3c(F)cccc32)cc(OC)c1OC [II-234]
herbicidal effect (index) on Abutilon theophrasti medicus [1]: 5
herbicidal effect (index) on Amaranthus viridis L. [2]: 5
herbicidal effects on Abutilon theophrasti medicus [3]: 5
herbicidal effects on Amaranthus viridis L. [4]: 5
herbicidal effects on Echinochloa crus-galli (L.) P. Beauv. var. crus-galli [5]: 4

Cn1c(=O)c(C(=O)C2=C(O)C3CCC(C3)C2=O)nc2ccccc21 (stereo not drawn) [I-5]
herbicidal effect (index) on Abutilon theophrasti medicus [1]: 5
herbicidal effect (index) on Amaranthus viridis L. [2]: 5
herbicidal effect (index) on Abutilon theophrasti medicus [3]: 5
herbicidal effect (index) on Amaranthus viridis L. [4]: 5
herbicidal effect (index) on Echinochloa crus-galli (L.) P. Beauv. var. crus-galli [5]: 4

CSCn1c(=O)c(C(=O)C2=C(O)C3CCC(C3)C2=O)nc2ccccc21 (stereo not drawn) [I-71]
herbicidal effect (index) on Abutilon theophrasti medicus [1]: 5
herbicidal effect (index) on Amaranthus viridis L. [2]: 5
herbicidal effect (index) on Abutilon theophrasti medicus [3]: 5
herbicidal effect (index) on Amaranthus viridis L. [4]: 5
herbicidal effect (index) on Echinochloa crus-galli (L.) P. Beauv. var. crus-galli [5]: 5

O=C1CCCC(O)=C1C(=O)c1nc2ccccc2n(-c2ncccn2)c1=O [I-195]
herbicidal effect (index) on Abutilon theophrasti medicus [1]: 5
herbicidal effect (index) on Amaranthus viridis L. [2]: 5
herbicidal effect (index) on Abutilon theophrasti medicus [3]: 5
herbicidal effect (index) on Amaranthus viridis L. [4]: 5
herbicidal effect (index) on Echinochloa crus-galli (L.) P. Beauv. var. crus-galli [5]: 5

CCCOc1cccc(-n2c(=O)c(C(=O)C3=C(O)CCCC3=O)nc3ccccc32)c1 [II-71]
herbicidal effects on Abutilon theophrasti medicus [3]: 5
herbicidal effects on Amaranthus viridis L. [4]: 5
herbicidal effects on Echinochloa crus-galli (L.) P. Beauv. var. crus-galli [5]: 4
Herbicidal effects index, Echinochloa oryzicola Vasing [6]: 4
Herbicidal effects index, Scirpus juncoides Roxb. var. ohwianus. T. Koyama [7]: 5
Herbicidal effects index, Monochoria vaginalis (Burm. f.) Presl var. plantaginea (Roxb.) Solms-Laub. [8]: 5

From patent US8389523B2, “Substituted quinoxaline and an agrochemical composition thereof” (Kumiai Chemical Industry Co., Ltd., priority 2007, dated 2013)
